Data on 56 compounds can be found in US12240840B2, “Amide-substituted heterocyclic compounds for the treatment of conditions related to the modulation of IL-12, IL-23 and/or IFN-alpha” (BRISTOL-MYERS SQUIBB COMPANY, priority 2018, dated 2025).

This experiment has as its system IFNα-induced pSTAT5 (pY694) in CD3 positive cells of human whole blood. Put plainly: IFNα-Induced STAT Phosphorylation in Human Whole Blood. It counts as cell-based. The note with it: Homo sapiens, 1 h compound incubation, 1000 U/mL recombinant human IFNα A/D for 15 min, pSTAT5 in CD3 positive population, read-out: Human WB IFNα-Induced Stat Phosph. (IC50). The gist of the method: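 Read-out is median fluorescence intensity of pSTAT5 (pY694) in the CD3-positive gate, by flow cytometry after fix/lyse and permeabilization. Before that, whole human blood anticoagulated with EDTA or ACD-A received compound for an hour and 1000 U/mL IFNα A/D for 15 min.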

Where only a bound is given, the exact number is not on record here.

Turning to `[2H]C([2H])([2H])NC(=O)c1nnc(NC(=O)C2CC2)cc1Nc1cccc(-c2noc([C@H](C)O)n2)c1OC` [Example 84], the IC50 turned out to be 130 nM.

Consider `[2H]C([2H])([2H])NC(=O)c1nnc(NC(=O)C2CC2)cc1Nc1cccc(-c2noc(C(=O)NCCC3CCCN3C)n2)c1OC` (centres unmarked) [Example 21], for which the IC50 came to 22 nM.

As for `[2H]C([2H])([2H])NC(=O)c1cnc(NC(=O)C2CC2)cc1Nc1cccc(-c2ncc(C(C)(C)O)s2)c1OC` [Example 270], the IC50 was determined as 100 nM.

Regarding `[2H]C([2H])([2H])NC(=O)c1nnc(NC(=O)C2CC2)cc1Nc1cc(F)cc(-c2cc(C(=O)N3CCC(N4CCCC4)CC3)n(C)n2)c1OC` [Example 516], the IC50 turned out to be 170 nM.

With `[2H]C([2H])([2H])NC(=O)c1nnc(NC(=O)C2CC2)cc1Nc1cccc(-c2cnn(CCNC(=O)COC)n2)c1OC` [Example 433], the IC50 was 160 nM.

For `[2H]C([2H])([2H])NC(=O)c1nnc(NC(=O)C2CC2)cc1Nc1cccc(-c2cc(C(=O)N3CCC(N4CCN(CCO)CC4)CC3)n(C)n2)c1OC` [Example 524], the concentration for half-maximal inhibition (IC50) was 3400 nM.

In the case of `[2H]C([2H])([2H])NC(=O)c1nnc(NC(=O)C2CC2)cc1Nc1cc(F)cc(-c2cc(C(=O)N3C[C@@H](C)O[C@@H](C)C3)n(C)n2)c1OC` [Example 499], the IC50 stood at 180 nM.

In the case of `[2H]C([2H])([2H])NC(=O)c1nnc(NC(=O)C2CC2)cc1Nc1cccc(-c2ccn(CC(=O)NCCOC)n2)c1OC` [Example 471], the half-maximal inhibitory concentration (IC50) was found to be 1590 nM.

Regarding `[2H]C([2H])([2H])NC(=O)c1nnc(Nc2ccc(OC)nn2)cc1Nc1cccc(-c2nc(C(=O)N(C)C)cs2)c1OC` [Example 379], the IC50 came to 560 nM.

As to `[2H]C([2H])([2H])NC(=O)c1nnc(NC(=O)C2CC2)cc1Nc1cccc(-c2nc(CCOC(C)(C)C)no2)c1OC` [Example 226], the IC50 was found to be 1160 nM.

Take `[2H]C([2H])([2H])NC(=O)c1cnc(NC(=O)C2CC2)cc1Nc1cccc(-c2nc(C3(NC(=O)OC(C)(C)C)CC3)no2)c1OC` [Example 213]: the IC50 was 4440 nM.

For the compound `CCS(=O)(=O)N(C)Cc1nc(-c2cccc(Nc3cc(NC(=O)C4CC4)nnc3C(N)=O)c2OC)no1` [Example 57], the IC50 was determined as 9 nM.

On to `[2H]C([2H])([2H])NC(=O)c1nnc(NC(=O)C2CC2)cc1Nc1cccc(-c2ncc(C(=O)N3CCCN(C)CC3)s2)c1OC` [Example 294], for which the IC50 was 70 nM.

On to `[2H]C([2H])([2H])NC(=O)c1nnc(NC(=O)C2CC2)cc1Nc1cc(F)cc(-c2cc(C(=O)N(C)C)n(C)n2)c1OC` [Example 495], for which the IC50 was 60 nM.

Consider `COc1c(Nc2cc(N)nnc2C(N)=O)cccc1-c1noc(C(=O)NCCC2CCCN2C)n1` (centres unmarked) [Example 115], for which the IC50 amounted to 3490 nM.

As to `[2H]C([2H])([2H])NC(=O)c1nnc(NC(=O)C2CC2)cc1Nc1cccc(-c2nc(CNC(=O)CNC)no2)c1OC` [Example 154], the IC50 was 1110 nM.

Consider `[2H]C([2H])([2H])NC(=O)c1nnc(NC(=O)C2CC2)cc1Nc1cccc(-c2nc(C)c(C(=O)N3CCS(=O)(=O)CC3)s2)c1OC` [Example 372], for which the IC50 was 150 nM.

Take `COc1c(Nc2cc(NC(=O)C3CC3)nnc2C(N)=O)cccc1-c1noc(CO)n1` [Example 70]: the IC50 stood at 14 nM.

For `[2H]C([2H])([2H])NC(=O)c1nnc(NC(=O)C2CC2)cc1Nc1cc(F)cc(-c2cc(C(=O)NCCCCC)n(C)n2)c1OC` [Example 513], the IC50 is more than 10000 nM.

As to `[2H]C([2H])([2H])NC(=O)c1nnc(NC(=O)C2CC2)cc1Nc1cccc(-c2ncc(C(=O)N3CCC(N4CCN(CCO)CC4)CC3)s2)c1OC` [Example 342], the IC50 was 80 nM.

`[2H]C([2H])([2H])NC(=O)c1nnc(NC(=O)C2CC2)cc1Nc1cccc(-c2ncc(C(=O)NCCC(C)C)s2)c1OC` [Example 305]: the IC50 stood at 220 nM.

Regarding `[2H]C([2H])([2H])NC(=O)c1nnc(Nc2ccc(OC)nn2)cc1Nc1cccc(-c2csc(C(=O)NCCOC)n2)c1OC` [Example 565], the IC50 worked out at 250 nM.

With `[2H]C([2H])([2H])NC(=O)c1nnc(NC(=O)C2CC2)cc1Nc1cccc(-n2cc(CO)nn2)c1OC` [Example 3], the IC50 came to 980 nM.

As to `[2H]C([2H])([2H])NC(=O)c1nnc(NC(=O)C2CC2)cc1Nc1cccc(-c2ncc(C(=O)NCc3ccccc3)s2)c1OC` [Example 289], the IC50 came to 150 nM.

On to `[2H]C([2H])([2H])NC(=O)c1nnc(NC(=O)C2CC2)cc1Nc1cccc(-c2ncc(C(=O)N3CCS(=O)(=O)CC3)s2)c1OC` [Example 273], for which the IC50 was 70 nM.

Take `[2H]C([2H])([2H])NC(=O)c1cnc(NC(=O)C2CC2)cc1Nc1cccc(-c2csc(C(=O)NCCOC)n2)c1OC` [Example 569]: the IC50 came to 590 nM.

On to `[2H]C([2H])([2H])NC(=O)c1nnc(NC(=O)C2CC2)cc1Nc1cccc(-c2ncc(C(=O)NC3CCC(N(C)C)CC3)s2)c1OC` (centres unmarked) [Example 307], for which the IC50 was determined as 30 nM.

`COc1c(Nc2cc(NC(=O)C3CC3)nnc2C(N)=O)cccc1-c1ncc(C(=O)N2CCOCC2)s1` [Example 245]: the IC50 amounted to 110 nM.

`[2H]C([2H])([2H])NC(=O)c1nnc(Nc2ccc(OCC)nn2)cc1Nc1cc(F)cc(-c2cc(C(C)(C)O)n(C)n2)c1OC` [Example 545]: the IC50 turned out to be 220 nM.

On to `COc1c(Nc2cc(NC(=O)C3CC3)nnc2C(N)=O)cccc1-c1noc([C@H](C)NS(C)(=O)=O)n1` [Example 46], for which the IC50 is 140 nM.

As for `[2H]C([2H])([2H])NC(=O)c1cnc(NC(=O)C2CC2)cc1Nc1cccc(-c2nc(CO)no2)c1OC` [Example 217], the IC50 was determined as 180 nM.

Take `[2H]C([2H])([2H])NC(=O)c1nnc(NC(=O)C2CC2)cc1Nc1cccc(-c2nc(CN3CC4CN(S(C)(=O)=O)CC4C3)no2)c1OC` (centres unmarked) [Example 235]: the IC50 amounted to 50 nM.

As for `CCC(C(=O)NCCOC)c1nc(-c2cccc(Nc3cc(NC(=O)C4CC4)nnc3C(N)=O)c2OC)no1` (centres unmarked) [Example 56], the IC50 turned out to be 120 nM.

On to `COc1c(Nc2cc(NC(=O)C3CC3)nnc2C(N)=O)cccc1-c1ncc(C(=O)NC(C)C)s1` [Example 404], for which the IC50 is 110 nM.

On to `[2H]C([2H])([2H])NC(=O)c1nnc(NC(=O)C2CC2)cc1Nc1cccc(-c2cnn(CCN)n2)c1OC` [Example 448], for which the IC50 worked out at 140 nM.

On to `[2H]C([2H])([2H])NC(=O)c1nnc(NC(=O)C2CC2)cc1Nc1cccc(-c2noc(CO)n2)c1OC` [Example 69], for which the IC50 is 30 nM.

As to `[2H]C([2H])([2H])NC(=O)c1nnc(Nc2ccc(OC)nn2)cc1Nc1cccc(-c2ncc(CN)s2)c1OC` [Example 389], the IC50 stood at 570 nM.

As for `COc1c(Nc2cc(NC(=O)C3CC3)nnc2C(N)=O)cccc1-c1noc(CNS(=O)(=O)C2CC2)n1` [Example 49], the IC50 turned out to be 50 nM.

As for `[2H]C([2H])([2H])NC(=O)c1nnc(NC(=O)C2CC2)cc1Nc1cccc(-c2noc(C(=O)NC3CCC(N(C)C)CC3)n2)c1OC` (centres unmarked) [Example 24], the IC50 was determined as 240 nM.

With `[2H]C([2H])([2H])NC(=O)c1nnc(NC(=O)C2CC2)cc1Nc1cccc(-c2nc(CN(C)C(=O)CC#N)no2)c1OC` [Example 171], the IC50 turned out to be 690 nM.

As to `COc1c(Nc2cc(NC(=O)C3CC3)nnc2C(N)=O)cccc1-c1ncc(C(=O)NCCC2CCCN2C)o1` (centres unmarked) [Example 415], the IC50 came to 40 nM.

In the case of `[2H]C([2H])([2H])NC(=O)c1nnc(NC(=O)C2CC2)cc1Nc1cccc(-c2nc([C@H](CO)NC(=O)CC)no2)c1OC` [Example 198], the IC50 was determined as 1650 nM.

Consider `[2H]C([2H])([2H])NC(=O)c1nnc(NC(=O)C2CC2)cc1Nc1cccc(-c2nc([C@@H](C)NC(=O)CC)no2)c1OC` [Example 196], for which the IC50 stood at 1180 nM.

On to `[2H]C([2H])([2H])NC(=O)c1nnc(NC(=O)C2CC2)cc1Nc1cc(F)cc(-c2cc(C(=O)N3CC4CN(C)CC4C3)n(C)n2)c1OC` (centres unmarked) [Example 496], for which the IC50 is 250 nM.

As for `COc1c(Nc2cc(NC(=O)C3CC3)nnc2C(N)=O)cccc1-c1ncc(C(=O)N2CCCC2)s1` [Example 407], the IC50 is 160 nM.

On to `[2H]C([2H])([2H])NC(=O)c1nnc(NC(=O)C2CC2)cc1Nc1cccc(-c2cnn(CCNC(C)=O)n2)c1OC` [Example 432], for which the 50% inhibitory concentration (IC50) came to 300 nM.

For the compound `[2H]C([2H])([2H])NC(=O)c1cnc(NC(=O)C2CC2)cc1Nc1cccc(-c2cc(C(=O)N3CCS(=O)(=O)CC3)n(C)n2)c1OC` [Example 488], the IC50 came out at 530 nM.

For `[2H]C([2H])([2H])NC(=O)c1nnc(NC(=O)C2CC2)cc1Nc1cccc(-c2noc(CC(=O)N3CCOCC3)n2)c1OC` [Example 23], the IC50 came out at 60 nM.

For `[2H]C([2H])([2H])NC(=O)c1cnc(NC(=O)C2CC2)cc1Nc1cccc(-c2noc(CN3CCOCC3)n2)c1OC` [Example 96], the IC50 came out at 15 nM.

Turning to `[2H]C([2H])([2H])NC(=O)c1nnc(NC(=O)C2CC2)cc1Nc1cccc(-c2ncc(C(=O)N3CCC(CCOC)CC3)s2)c1OC` [Example 325], the IC50 was 110 nM.

With `[2H]C([2H])([2H])NC(=O)c1nnc(NC(=O)C2CC2)cc1Nc1cccc(-c2ncc(C(=O)NCC(C)C)s2)c1OC` [Example 310], the IC50 is more than 10000 nM.

With `[2H]C([2H])([2H])NC(=O)c1nnc(NC(=O)C2CC2)cc1Nc1cccc(-c2ncc(C(=O)N3CC(CO)C3)s2)c1OC` [Example 345], the IC50 was 180 nM.

As to `[2H]C([2H])([2H])NC(=O)c1nnc(NC(=O)C2CC2)cc1Nc1cccc(-c2ccn(CCN(C[C@H](O)CC)C[C@@H](O)CC)n2)c1OC` [Example 475], the IC50 came to 2320 nM.

Take `[2H]C([2H])([2H])NC(=O)c1nnc(NC(=O)C2CC2)cc1Nc1cccc(-c2nc(CNS(C)(=O)=O)no2)c1OC` [Example 146]: the IC50 is 210 nM.

As for `[2H]C([2H])([2H])NC(=O)c1nnc(NC(=O)C2CC2)cc1Nc1cccc(-c2ncc(C(=O)NCC34CCN(CC3)CC4)s2)c1OC` [Example 287], the IC50 was 1260 nM.

As to `COc1c(Nc2cc(NC(=O)C3CC3)nnc2C(N)=O)cccc1-c1noc([C@H]2CCCN2S(C)(=O)=O)n1` [Example 53], the IC50 came to 210 nM.
